C[C@H](CCC(=O)O)[C@H]1CC[C@H]2[C@@H]3CC[C@@H]4C[C@H](O)CC[C@]4(C)[C@H]3C[C@H](O)[C@]12C
solubility (mole fraction)
Conditions	in 2-pentanone	in cyclohexanone	in ethyl acetate	in furfural	in gamma-valerolactone	in methyl acetate	in n-butanol	in n-butyl acetate	in n-hexanol	in n-octanol
283.15 K	0.000911	0.00147	0.000187	0.000227	0.000904	0.000224	0.00134	0.000222	0.00773	0.00898
293.15 K	0.00145	0.00214	0.000304	0.000293	0.00147	0.000382	0.00159	0.000275	0.00902	0.0116
303.15 K	0.00198	0.00302	0.000448	0.000478	0.00217	0.00071	0.00189	0.000415	0.0102	0.0135
313.15 K	0.00286	0.00416	0.000771	0.000599	0.00304	0.00107	0.00246	0.000609	0.0125	0.016
323.15 K	0.00378	0.00567	0.0011	0.000913	0.00509	0.0016	0.00275	0.000875	0.0153	0.0192
333.15 K	0.0049	0.00744	0.00147	0.0014	0.00757	–	0.00315	0.00127	0.0174	0.0232

C[C@H](CCC(=O)O)[C@H]1CC[C@H]2[C@@H]3[C@H](O)C[C@@H]4C[C@H](O)CC[C@]4(C)[C@H]3C[C@H](O)[C@]12C
solubility (mole fraction)
Conditions	in 2-pentanone	in cyclohexanone	in ethyl acetate	in furfural	in gamma-valerolactone	in methyl acetate	in n-butanol	in n-butyl acetate	in n-hexanol	in n-octanol
283.15 K	0.00141	0.00753	0.000154	3.55e-05	0.000822	7.59e-05	0.00219	0.000224	0.0156	0.0154
293.15 K	0.00164	0.00842	0.000242	7.5e-05	0.00154	0.000128	0.00245	0.000284	0.0166	0.0171
303.15 K	0.00206	0.00952	0.000392	0.000127	0.00258	0.000232	0.0027	0.000378	0.0182	0.0183
313.15 K	0.00247	0.0106	0.000536	0.000197	0.00412	0.000489	0.00296	0.000492	0.0202	0.0201
323.15 K	0.00299	0.012	0.000713	0.000349	0.00604	0.000811	0.00337	0.000613	0.0223	0.0222
333.15 K	0.00345	0.0137	0.000942	0.000563	0.00978	–	0.00389	0.000765	0.0236	0.0242

From BigSolDB 2.1
